Results on 31 compounds are retold here after ChEMBL document CHEMBL1201862, “PubChem BioAssay data set” (2004).

A short description of data set [1]: intracellular Trypanosoma cruzi inhibitors in host cells – cell-based, plate reader, cherry-pick samples, set 3, dose response (AID 651818).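 Note: compounds incubated with infected cells for about four days.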 In kind it is functional.
Data set [2] concerns the target Genome polyprotein (dengue virus type 2, UniProt P29990). In words: Dengue-2 NS5 methyltransferase inhibitors, primary screen, biochemical, confirmation dose response (AID 588689). Format: functional.
Data set [3] has as its target Large T antigen (Simian virus 40, UniProt P03070). Format: functional, Betapolyomavirus macacae.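 Note: Confirmatory-stage PubChem screen for compounds that inhibit SV40 T antigen.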
In data set [4] the target is T1, Estrogen receptor (Homo sapiens, UniProt P03372).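 Note: potency for inhibiting coactivator peptide recruitment to the receptor.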
T1 sequence (P03372 whole entry): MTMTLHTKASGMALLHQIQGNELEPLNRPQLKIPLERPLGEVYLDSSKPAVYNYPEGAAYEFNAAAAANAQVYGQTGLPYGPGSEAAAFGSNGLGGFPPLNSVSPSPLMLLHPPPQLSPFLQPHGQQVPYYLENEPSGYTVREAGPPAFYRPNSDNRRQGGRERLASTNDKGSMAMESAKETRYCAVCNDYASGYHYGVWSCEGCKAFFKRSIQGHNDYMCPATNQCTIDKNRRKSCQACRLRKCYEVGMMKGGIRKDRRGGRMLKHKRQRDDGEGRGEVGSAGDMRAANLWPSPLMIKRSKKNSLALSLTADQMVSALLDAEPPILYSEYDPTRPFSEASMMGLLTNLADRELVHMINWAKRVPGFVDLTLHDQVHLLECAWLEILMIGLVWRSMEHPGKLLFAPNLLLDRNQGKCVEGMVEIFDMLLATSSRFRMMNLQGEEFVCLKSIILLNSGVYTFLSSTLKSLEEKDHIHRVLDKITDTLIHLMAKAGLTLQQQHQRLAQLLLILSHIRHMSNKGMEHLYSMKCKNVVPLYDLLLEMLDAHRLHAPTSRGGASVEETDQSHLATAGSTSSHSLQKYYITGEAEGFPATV

In data set [5] the target is T2, Rac GTPase-activating protein 1 (Homo sapiens, UniProt Q9H0H5).
T2 sequence (Q9H0H5 whole entry): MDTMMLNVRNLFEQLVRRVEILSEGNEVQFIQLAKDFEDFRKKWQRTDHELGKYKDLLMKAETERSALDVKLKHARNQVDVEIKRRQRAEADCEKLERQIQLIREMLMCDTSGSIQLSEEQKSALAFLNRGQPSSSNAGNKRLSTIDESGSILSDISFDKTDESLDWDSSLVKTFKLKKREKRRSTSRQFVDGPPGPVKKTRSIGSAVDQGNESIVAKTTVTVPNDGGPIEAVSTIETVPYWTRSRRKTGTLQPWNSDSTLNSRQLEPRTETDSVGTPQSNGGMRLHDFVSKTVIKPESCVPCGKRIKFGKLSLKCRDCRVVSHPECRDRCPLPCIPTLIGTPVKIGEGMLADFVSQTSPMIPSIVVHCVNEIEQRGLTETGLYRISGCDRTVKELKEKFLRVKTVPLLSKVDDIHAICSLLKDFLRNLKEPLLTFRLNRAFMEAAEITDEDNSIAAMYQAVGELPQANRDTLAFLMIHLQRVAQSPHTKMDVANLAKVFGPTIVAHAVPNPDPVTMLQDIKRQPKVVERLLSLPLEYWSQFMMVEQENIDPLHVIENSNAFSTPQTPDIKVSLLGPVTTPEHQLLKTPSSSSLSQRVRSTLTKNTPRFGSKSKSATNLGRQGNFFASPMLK
Kind of data set: MgcRacGAP GTPase-activating activity inhibitors, confirmation, biochemical, ADP Hunter fluorescence, primary and confirmatory (AID 624330). Format: functional.

Data set [6] in a line: Shn3 3'UTR reporter inhibitors, dose response, cell-based, Clone20 osteoblasts, firefly luciferase, cherry-picked (AID 624132).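 Note: firefly luciferase luminescence from reporter carrying the Shn3 3'UTR in osteoblasts.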 Format: functional.
The nature of data set [7]: control 3'UTR Renilla luciferase suppression, dose response, counter-screen for Shn3 inhibitor project, cell-based, Clone20-Shn3RL, cherry-picked (AID 624133). Format: functional. (In general: Counterscreens check selectivity or assay interference.)
The target of data set [8] is FAD-linked sulfhydryl oxidase ALR (Homo sapiens, UniProt P55789). Kind of data set: inhibitors of human ALR sulfhydryl oxidase, dose response, biochemical, H2O2 detection, luminescence, cherry-pick (AID 493248).
FAD-linked sulfhydryl oxidase ALR, sequence (P55789 whole entry): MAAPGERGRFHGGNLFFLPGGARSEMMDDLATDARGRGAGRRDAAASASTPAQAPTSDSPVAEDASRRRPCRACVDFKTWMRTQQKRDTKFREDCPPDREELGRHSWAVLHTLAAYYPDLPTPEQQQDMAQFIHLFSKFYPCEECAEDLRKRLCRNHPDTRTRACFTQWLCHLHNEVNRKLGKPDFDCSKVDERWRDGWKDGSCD
The target of data set [9] is Heat shock protein HSP 90-alpha (Homo sapiens, UniProt P07900). Format: functional, organism-based.
Data set [10] has as its target T3, Heat shock factor protein 1 (Mus musculus, UniProt P38532).
T3 sequence (P38532 whole entry): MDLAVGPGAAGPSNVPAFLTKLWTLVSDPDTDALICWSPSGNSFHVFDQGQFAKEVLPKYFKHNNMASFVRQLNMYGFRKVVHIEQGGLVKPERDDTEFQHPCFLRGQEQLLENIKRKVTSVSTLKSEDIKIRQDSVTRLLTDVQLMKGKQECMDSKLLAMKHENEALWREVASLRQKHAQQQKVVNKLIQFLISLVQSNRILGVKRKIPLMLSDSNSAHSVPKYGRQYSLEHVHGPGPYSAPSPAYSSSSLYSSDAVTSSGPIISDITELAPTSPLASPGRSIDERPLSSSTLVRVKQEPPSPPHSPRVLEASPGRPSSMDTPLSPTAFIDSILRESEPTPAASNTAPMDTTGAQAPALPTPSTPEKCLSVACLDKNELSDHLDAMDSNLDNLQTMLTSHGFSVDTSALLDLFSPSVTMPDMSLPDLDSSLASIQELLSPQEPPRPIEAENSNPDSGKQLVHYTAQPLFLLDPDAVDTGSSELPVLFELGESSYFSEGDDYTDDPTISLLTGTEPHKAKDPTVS
In words: HSF1 potentiators in luciferase reporter cells, confirmation, cell-based, NIH3T3, luminescence, dose retest (AID 435004).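 Note: stress induced by proteasome inhibitor MG132 added 30 min after compound; luciferase reporter driven by HSF1 response element in NIH3T3 cells; actives raise luminescence as potentiators of the MG132 stress response.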 Format: functional.

A short description of data set [11]: cells. In kind it is functional.
The target of data set [12] is Cytochrome P450 2C19 (Homo sapiens, UniProt P33261). Kind of data set: Cytochrome panel assay with activity outcomes. Panel member name: p450-cyp2c19 Compounds with AC50 equal or less than 10 uM are considered active. Format: functional.
Cytochrome P450 2C19, sequence (P33261 whole entry): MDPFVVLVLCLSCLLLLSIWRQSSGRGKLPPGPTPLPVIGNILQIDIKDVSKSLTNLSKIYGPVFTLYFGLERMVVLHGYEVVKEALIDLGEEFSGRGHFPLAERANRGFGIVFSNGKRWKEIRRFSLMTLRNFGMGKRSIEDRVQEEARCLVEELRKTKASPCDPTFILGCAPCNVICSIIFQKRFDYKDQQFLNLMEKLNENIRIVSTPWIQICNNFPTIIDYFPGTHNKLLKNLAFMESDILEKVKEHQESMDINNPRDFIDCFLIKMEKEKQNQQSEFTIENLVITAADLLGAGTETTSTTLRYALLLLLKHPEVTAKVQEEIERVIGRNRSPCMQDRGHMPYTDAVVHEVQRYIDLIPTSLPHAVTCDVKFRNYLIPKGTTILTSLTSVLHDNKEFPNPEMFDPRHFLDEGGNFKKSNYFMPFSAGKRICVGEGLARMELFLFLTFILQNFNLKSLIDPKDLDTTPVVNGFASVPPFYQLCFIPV
For data set [13], the target named is Cytochrome P450 2C9 (Homo sapiens, UniProt P11712).
Cytochrome P450 2C9, sequence (P11712 whole entry): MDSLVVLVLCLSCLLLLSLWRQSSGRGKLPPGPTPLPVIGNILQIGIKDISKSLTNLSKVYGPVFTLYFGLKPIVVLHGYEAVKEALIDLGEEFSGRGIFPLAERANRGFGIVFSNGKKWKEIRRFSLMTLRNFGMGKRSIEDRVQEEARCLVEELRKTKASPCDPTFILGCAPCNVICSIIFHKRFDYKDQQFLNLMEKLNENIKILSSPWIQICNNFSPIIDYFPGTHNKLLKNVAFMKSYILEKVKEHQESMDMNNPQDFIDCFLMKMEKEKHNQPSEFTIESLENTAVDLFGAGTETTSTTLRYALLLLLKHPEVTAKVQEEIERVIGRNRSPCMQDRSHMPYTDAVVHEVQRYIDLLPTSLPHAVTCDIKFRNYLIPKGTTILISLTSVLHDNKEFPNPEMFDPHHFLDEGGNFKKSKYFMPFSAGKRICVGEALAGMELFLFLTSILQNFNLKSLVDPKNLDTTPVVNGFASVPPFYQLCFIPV
The nature of data set [14]: inhibitors of firefly luciferase expression or activity, dose response, H4 neuroglioma cells, luminescence (AID 1990). Format: functional, cell-based.
A short description of data set [15]: Luminescence Cell-Based Dose Response HTS to Identify Inhibitors of 5'UTR Stem-Loop Driven Prion Protein mRNA Translation in H4 Neuroglioblastoma Cells. [Related pubchem assays: 1827 (Project Summary), 1813 (Primary HTS)]. Format: functional.
A short description of data set [16]: inhibitors of SNCA 5'UTR-driven reporter translation, confirmation, H4 neuroglioma cells, luminescence (AID 1988). Format: functional, cell-based.
In data set [17] the target is Induced myeloid leukemia cell differentiation protein Mcl-1 (Homo sapiens, UniProt Q07820). Format: functional.
Induced myeloid leukemia cell differentiation protein Mcl-1, sequence (Q07820 whole entry): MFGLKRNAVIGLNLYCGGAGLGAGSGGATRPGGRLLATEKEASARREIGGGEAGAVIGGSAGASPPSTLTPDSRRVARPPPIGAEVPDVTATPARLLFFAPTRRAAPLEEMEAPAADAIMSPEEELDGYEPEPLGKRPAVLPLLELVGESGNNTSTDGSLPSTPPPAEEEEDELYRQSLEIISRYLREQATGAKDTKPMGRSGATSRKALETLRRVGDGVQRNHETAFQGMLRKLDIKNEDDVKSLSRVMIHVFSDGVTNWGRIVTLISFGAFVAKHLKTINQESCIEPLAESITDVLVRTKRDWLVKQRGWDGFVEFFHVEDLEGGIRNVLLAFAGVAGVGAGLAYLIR
A short description of data set [18]: NIH-3T3 fibroblast cytotoxicity, dose response, cytotoxicity control, cell-based, fluorescence, Alamar Blue, secondary assay (AID 2327).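 Note: NIH-3T3 mouse fibroblasts cultured with fluconazole at 8 µg/mL.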 In kind it is functional. A general note: Resazurin is reduced to fluorescent resorufin, in cell work by metabolically active cells.
A short description of data set [19]: cells. Format: functional, cell-based.
The nature of data set [20]: C. albicans growth with fluconazole, confirmation, fluorescence, retest (AID 2467). In kind it is functional, cell-based.
Data set [21] in a line: cells. In kind it is functional, cell-based. The source holds these as a separate data set.
Data set [22] concerns the target Nonstructural protein 1 (Influenza A virus, UniProt Q194T2). Format: functional, Influenza A virus (A/California/07/2009(H1N1)).

Structures are written as SMILES. The source made the active and inactive calls.

Genome polyprotein, sequence (P29990 2492-3391 limits assumed): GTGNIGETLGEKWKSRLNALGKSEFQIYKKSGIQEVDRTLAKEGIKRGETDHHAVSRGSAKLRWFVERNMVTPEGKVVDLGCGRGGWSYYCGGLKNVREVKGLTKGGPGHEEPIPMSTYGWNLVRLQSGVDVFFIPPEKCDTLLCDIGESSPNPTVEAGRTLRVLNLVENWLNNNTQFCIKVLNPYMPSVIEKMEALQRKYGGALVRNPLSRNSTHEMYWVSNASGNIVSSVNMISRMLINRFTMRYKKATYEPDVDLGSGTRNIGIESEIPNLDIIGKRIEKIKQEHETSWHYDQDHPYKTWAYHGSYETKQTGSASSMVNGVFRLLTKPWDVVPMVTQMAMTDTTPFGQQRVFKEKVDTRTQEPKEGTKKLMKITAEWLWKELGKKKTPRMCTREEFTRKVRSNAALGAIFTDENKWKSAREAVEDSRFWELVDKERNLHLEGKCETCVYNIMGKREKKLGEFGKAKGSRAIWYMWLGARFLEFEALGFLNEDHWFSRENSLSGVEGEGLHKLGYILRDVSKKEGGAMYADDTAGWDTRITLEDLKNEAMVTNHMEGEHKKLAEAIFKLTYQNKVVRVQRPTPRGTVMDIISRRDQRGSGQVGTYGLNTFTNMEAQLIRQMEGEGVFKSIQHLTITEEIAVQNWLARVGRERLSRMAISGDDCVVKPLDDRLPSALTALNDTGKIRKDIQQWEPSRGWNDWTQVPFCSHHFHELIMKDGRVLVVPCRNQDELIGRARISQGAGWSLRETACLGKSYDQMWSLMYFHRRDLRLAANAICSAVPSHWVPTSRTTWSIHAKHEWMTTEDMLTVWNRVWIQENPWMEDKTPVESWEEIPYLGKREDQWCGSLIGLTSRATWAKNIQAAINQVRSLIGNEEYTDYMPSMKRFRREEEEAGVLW
Large T antigen, sequence (P03070 whole entry): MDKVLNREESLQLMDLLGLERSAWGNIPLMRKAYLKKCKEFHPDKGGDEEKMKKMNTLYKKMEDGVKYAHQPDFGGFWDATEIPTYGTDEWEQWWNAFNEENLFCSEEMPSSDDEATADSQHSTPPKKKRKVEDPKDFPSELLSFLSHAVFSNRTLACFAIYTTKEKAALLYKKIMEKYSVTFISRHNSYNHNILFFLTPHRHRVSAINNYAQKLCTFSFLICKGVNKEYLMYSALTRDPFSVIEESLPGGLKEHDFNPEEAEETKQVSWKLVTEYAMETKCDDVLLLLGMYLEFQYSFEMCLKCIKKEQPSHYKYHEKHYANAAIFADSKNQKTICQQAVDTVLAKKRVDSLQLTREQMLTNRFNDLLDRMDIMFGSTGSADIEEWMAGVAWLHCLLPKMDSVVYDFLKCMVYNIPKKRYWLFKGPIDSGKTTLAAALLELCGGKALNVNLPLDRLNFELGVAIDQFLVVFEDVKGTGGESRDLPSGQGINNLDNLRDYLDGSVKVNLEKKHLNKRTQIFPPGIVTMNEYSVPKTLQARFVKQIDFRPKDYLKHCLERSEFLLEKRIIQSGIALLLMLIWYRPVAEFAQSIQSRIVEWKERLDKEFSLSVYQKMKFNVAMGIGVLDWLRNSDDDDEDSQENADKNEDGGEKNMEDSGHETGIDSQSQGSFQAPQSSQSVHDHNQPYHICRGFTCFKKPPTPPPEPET
Nonstructural protein 1, sequence (Q194T2 whole entry): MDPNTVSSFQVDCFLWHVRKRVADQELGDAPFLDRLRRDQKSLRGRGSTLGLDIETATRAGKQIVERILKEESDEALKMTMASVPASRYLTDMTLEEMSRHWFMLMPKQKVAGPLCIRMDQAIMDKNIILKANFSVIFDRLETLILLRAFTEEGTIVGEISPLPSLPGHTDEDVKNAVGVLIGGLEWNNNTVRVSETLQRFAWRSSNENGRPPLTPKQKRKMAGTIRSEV

Broadly, the AC50 is the concentration at which the activity in the assay is half-maximal. `C[C@@H]1CCCCO[C@H](CN(C)C(=O)Nc2ccc(C(F)(F)F)cc2)[C@@H](C)CN([C@H](C)CO)C(=O)c2cc(NC(=O)CCC(F)(F)F)ccc2O1`: the AC50 in data set [1] was 3.67 µM (active). A word on the IC50: it is the concentration that gives 50% inhibition. Take `CSc1nc(O)c(C(c2ccc(O)cc2)c2c(O)nc(SC)nc2O)c(O)n1`: the IC50 in data set [2] was 46.7 µM (active). For `N=C1/C(=C\c2ccc(O)cc2)C(=O)N=C2SC(CC(=O)N3CCCCC3)=NN12`, in data set [3], the IC50 was 14.2 µM (active). For `Cc1ccc(-n2nnnc2SCC(=O)Nc2cccc(NC(=O)c3ccco3)c2)cc1C`, in [4], the IC50 is 14.9 µM (active). As to `Cc1[nH]n(-c2ccccc2)c(=O)c1N=Nc1ccccc1C(=O)O`, the IC50 in [2] is 58 µM (active). As to `C[C@@H]1CN([C@@H](C)CO)C(=O)c2cccc(NC(=O)c3nc4ccccc4s3)c2O[C@@H]1CN(C)Cc1ccccc1`, the AC50 in [1] is 4.84 µM (active). On to `C[C@@H]1CCCCO[C@@H](CN(C)Cc2ccc(C(=O)Nc3ccccc3N)cc2)[C@@H](C)CN([C@H](C)CO)C(=O)c2cc(NS(=O)(=O)c3ccc(Cl)cc3)ccc2O1`, for which the AC50 in data set [1] is 3.39 µM (active).

`C[C@@H]1CN([C@H](C)CO)C(=O)Cc2cc(NC(=O)Nc3ccc4c(c3)OCO4)ccc2O[C@H]1CN(C)CC1CCCCC1`: the AC50 in [1] is 7 µM (active). On to `CN=C(S)Nc1ccc(Nc2ccccc2)cc1`, for which the figures for the IC50 in data set [3] and in data set [5] were 12.3 µM (active) and 64.6 µM (active), respectively. Consider `COc1cccc(C2CC(c3ccc(C)cc3)=NN2C(=O)c2ccccc2F)c1OC` (stereo not drawn), for which the AC50 in data set [6] was 36 µM (active); in [7], 30.4 µM (active).

Turning to `COc1cc(/C=N\NC(=O)CC(=O)NCCc2ccccc2)ccc1O`, the IC50 in [3] is 7.57 µM (active); in [5], 27.4 µM (active). In addition, the AC50 in data set [8] was 1.7 µM (active).

Regarding `C[C@H](CO)N1C[C@H](C)[C@@H](CN(C)Cc2ccc(-c3ccccc3)cc2)Oc2c(NC(=O)c3ccncc3)cccc2C1=O`, the AC50 in [1] was 0.08 µM (active). For `CCOc1ccc(C(c2c(O)n(C)c(SC)nc2=O)c2c(O)n(C)c(SC)nc2=O)cc1`, in data set [2], the IC50 was 43 µM (active). Regarding `C[C@@H]1CN([C@H](C)CO)C(=O)Cc2cc(NS(=O)(=O)c3ccc(Cl)cc3)ccc2O[C@@H]1CN(C)Cc1ccc(-c2ccccc2)cc1`, the concentration at half-maximal activity (AC50) in data set [1] was 2.76 µM (active). For the compound `F[B-](F)(F)c1cc2cc(Br)ccc2s1`, the AC50 in data set [9] was 4.02 µM (active). `Cc1c(C)n(Cc2ccccc2)c2ncnc(NN)c12`: the IC50 in data set [3] is > 100 µM (active).

In the case of `COc1ccc(S(=O)(=O)N(C)C[C@H]2Oc3ccc(NC(=O)Nc4cccc5ccccc45)cc3C(=O)N([C@@H](C)CO)C[C@H]2C)cc1`, the AC50 in data set [1] was 4.38 µM (active).

What is called EC50 is the concentration at which the effect is half-maximal. In the case of `CCOC(=O)C(C)Oc1cc(Cl)c(C=O)cc1OC` (stereo not drawn), the EC50 in data set [10] is > 260 µM (inactive). Also, the half-maximal inhibitory concentration (IC50) in [11] is 24.4 µM (active). For the compound `O=C(CN1CCCCC1)Nc1nnc(-c2ccc([N+](=O)[O-])cc2)s1`, the IC50 in data set [11] was 29.9 µM (active). The values for the AC50 result in data set [12] and in data set [13] were “inconclusive” and 17.8 µM (inconclusive), respectively. Consider `CCn1c(SCC(=O)Nc2ccc(NC(=O)c3ccco3)c(OC)c2)nc2ccccc2c1=O`, for which, in data set [4], the IC50 was 35.8 µM (not active). For the compound `C=CCOC(=O)C1=C(C)N=c2s/c(=C3\C(=O)N(CC(=O)O)c4ccccc43)c(=O)n2C1c1ccc(OC)cc1` (stereo not drawn), the EC50 in data set [14] is > 120 µM (not active); in [15], > 120 µM (not active); in data set [16] it was 74 µM (active). The IC50 in data set [3] was 49.1 µM (active); in data set [17], 3 µM (active); in data set [2], 59.4 µM (active).

In the case of `Cc1ccnc(NC(c2cccnc2)c2ccc3cccnc3c2O)c1` (stereo not drawn), the EC50 in data set [18] is 46.7 µM (active); in [19], 200 µM (active); in [20], > 38 µM (not active); in data set [21], > 350 µM (not active). In [22], the IC50 is 8.52 µM (active). For the compound `CCOC(=O)c1cc(-c2ccc(N)cc2)sc1N`, the IC50 in data set [3] is 9.87 µM (active).

Consider `C[C@@H]1CCCCO[C@@H](CN(C)Cc2ccc(Cl)c(Cl)c2)[C@@H](C)CN([C@H](C)CO)C(=O)c2cc(NC(=O)Cc3ccccc3)ccc2O1`, for which the AC50 in [1] was 4.04 µM (active). Regarding `CCCCSc1nnc2c(n1)[nH]c1ccccc12`, the IC50 in data set [4] is > 50 µM (not active). For the compound `COC(=O)[C@@]12CCCN1[C@H](c1ccc(-c3ccc(OC)cc3)cc1)[C@@H]1C(=O)N(C)C(=O)[C@@H]12`, the AC50 in [6] is 38.9 µM (active).

`COCCCNC(=O)c1ccc2c(=O)n(Cc3ccc4c(c3)OCO4)c(=S)[nH]c2c1`: the IC50 in [4] was 42 µM (not active).

For `O=C(Cn1c(=O)n(Cc2ccco2)c(=O)c2c3c(sc21)CCCCC3)c1ccccc1`, in data set [4], the IC50 was > 50 µM (not active).

As to `COc1ccccc1NS(=O)(=O)c1cc(C(=O)N2CC(C)CC(C)C2)ccc1C` (stereo not drawn), the EC50 in data set [10] was > 260 µM (inactive). Also, the AC50 in [9] is 5.54 µM (active).

`CCc1ccc(NC(=O)N(CCN2CCOCC2)Cc2ccc3c(c2)CCCN3CC)cc1`: the IC50 in [22] is 40.6 µM (active). With `COc1ccc(CNC(=O)c2cc(-c3cccs3)on2)cc1`, in data set [4], the IC50 is 27.7 µM (active).
